Results on 97 compounds are retold here after ChEMBL document CHEMBL3507680, “University of Dundee, Gates Library screen for HepG2 cell viability”.

The nature of this data set: Human HepG2 cell viability assay in 384 well format. It is filed as toxicity, cell-based. Details: dose 125 nL, time 70.5 hour; cytotoxicity at 70.5 h: concentration not given beside the values. As to conditions: HepG2 cells, read-out: Inhibition.
`Cc1cc(C(F)(F)F)nc(CNC(=O)CCC2CCCN(C)C2)n1` (configuration not stated): the cytotoxicity at 70.5 h was -6.3%.
Regarding `OC1CN(Cc2ccccc2)CCN(c2ccncc2)C1` (configuration not stated), the cytotoxicity at 70.5 h came out at 11.5%.
On to `O=C(NC1CCCN(c2ccc(OC(F)F)cc2)C1)c1c[nH]nn1` (configuration not stated), for which the cytotoxicity at 70.5 h turned out to be 18.5%.
Take `Cc1cc2nc(SCC(=O)N3CCOCC3)n(CCC(C)C)c(=O)c2[nH]1`: the cytotoxicity at 70.5 h is -0.683%.
Regarding `O=C(NC1CC1)[C@@H]1C[C@@H]2CCN(Cc3ccccc3)C[C@H]2O1`, the cytotoxicity at 70.5 h was -9.32%.
Turning to `Cc1nc2c(C)cccc2cc1C(=O)N1CCC2(CC1)NCCNC2=O`, the cytotoxicity at 70.5 h was -15.8%.
For the compound `Cc1nc[nH]c1CN1CCCC(CNC(=O)c2ccncn2)C1` (configuration not stated), the cytotoxicity at 70.5 h is -7.41%.
In the case of `Cc1c(C(=O)N2CCN(C)CC2)n(C)c2ccc(Cl)cc12` it was -11.7%; in that of `CC1=NOC(C(=O)N2CCC(O)(c3ccc4nc(C)ccc4c3)CC2)C1` (configuration not stated), -6.17%.
Turning to `Cn1ncnc1NCc1ccccc1Cl`, the cytotoxicity at 70.5 h was -15.3%.
Consider `CCCN(CC(F)(F)F)C(=O)c1cc(F)cc2[nH]cnc12`, for which the cytotoxicity at 70.5 h was determined as 0.747%.
To `CCCS(=O)(=O)N1C[C@@H]2COC[C@@H](Cc3nc(C)no3)[C@@H]2C1` belongs -1.7%.
To `Cc1nn(-c2ccccc2)cc1C(=O)N1CCCC(n2ccnc2C)C1` (configuration not stated) belongs -4.52%; to `O=C(COc1ccccc1)NCCNC(=O)c1scnc1Cl`, -11.8%; to `CCS(=O)(=O)N1CCCn2c(nc(CN3CCCC3)cc2=O)C1`, -7.43%.
Consider `COCC(=O)N1CCC(c2cc(-c3ccc(C)cc3)n[nH]2)C1` (configuration not stated), for which the cytotoxicity at 70.5 h was determined as 14.4%.
`CC(C)(C)c1cn(CC2CCCN(c3cnc4ccccc4n3)C2)nn1` (configuration not stated): the cytotoxicity at 70.5 h is 0.262%.
Consider `Cn1cc(N2CCCC(NCc3cccc4c3OCCCO4)C2)cn1` (configuration not stated), for which the cytotoxicity at 70.5 h was -14.6%.
To `COCC1CN(Cc2ccc(OC)cc2)S(=O)(=O)c2cnccc2O1` (configuration not stated) belongs -3.12%; to `Cc1cc(CN2CCC(CNC(=O)c3cnc(C)nc3C)C2)[nH]n1` (configuration not stated), 7.59%.
Regarding `CC(=O)Nc1ncc(S(=O)(=O)Nc2ccccc2)s1`, the cytotoxicity at 70.5 h is -11.1%.
Turning to `COCCOC1CCN(C(=O)NCc2cc(C)oc2C)CC1`, the cytotoxicity at 70.5 h was -8.46%.
In the case of `O=C(C1CCC1)N1CCn2c(COc3ncccn3)nnc2C1` it was 1.54%.
As for `CC(C)c1nc(C2CCCN2CC(=O)Nc2cccnc2)no1` (configuration not stated), the cytotoxicity at 70.5 h is -14%.
As for `COc1cc(C2(C(=O)N3CCN(CC(C)O)CC3)CC2)ccc1C` (configuration not stated), the cytotoxicity at 70.5 h came to 10.5%.
Regarding `Cc1nccc(CNS(=O)(=O)N(C)Cc2ccc(Cl)cc2)n1`, the cytotoxicity at 70.5 h is 8.78%.
In the case of `O=C(O)c1cc(S(=O)(=O)Nc2cccc(F)c2F)cc2c1OCCO2` it was -0.966%; in that of `CC(C)N(C)Cc1cnc2n1CCN(Cc1ccc(F)cc1)C2`, -9.32%; in that of `CC(O)(CNc1ccccn1)c1ccccc1` (configuration not stated), 19.5%.
In the case of `O=C(CCc1cscn1)N1CCCC(n2cncn2)C1` (configuration not stated), the cytotoxicity at 70.5 h was 10.8%.
For the compound `COc1ccc(CN2C[C@@H](OCc3ccccn3)[C@H]3COC[C@H]32)cc1`, the cytotoxicity at 70.5 h is -23.2%.
For the compound `c1ccc(C[C@H]2CN(Cc3nccs3)CC[C@H]2OCC2CC2)cc1`, the cytotoxicity at 70.5 h was -11.5%.
For the compound `Cc1ccc([C@@H]2CN(S(=O)(=O)c3cccs3)C[C@H]2N(C)C)cc1`, the cytotoxicity at 70.5 h is -2.64%.
In the case of `COc1cccc(C(=O)N(C)Cc2ncc(C)c(OC)c2C)c1OC`, the cytotoxicity at 70.5 h is -0.629%.
On to `CS(=O)(=O)N1CCC2(CC1)CC(CC(=O)NCC1CC1)c1ccccc12` (configuration not stated), for which the cytotoxicity at 70.5 h is 5.79%.
For the compound `O=C1COc2ccc(Cl)cc2CN1CC1CC1`, the cytotoxicity at 70.5 h is -12%.
To `CCCNC(=O)C(C)Nc1cccc(Oc2ccc(C#N)cn2)c1` (configuration not stated) belongs 24.3%.
On to `O=C(c1ccccn1)N1CCc2ncnc(N3CCOCC3)c2CC1`, for which the cytotoxicity at 70.5 h is -5.19%.
Take `CC(C)c1ccc(NC2CCCN(Cc3ccncc3)C2)cc1` (configuration not stated): the cytotoxicity at 70.5 h is 0.778%.
Regarding `Fc1ccc(N2CCOC3(COCCN(c4ncccn4)C3)C2)cc1` (configuration not stated), the cytotoxicity at 70.5 h is -6.83%.
As to `c1cnnc(NCC2CN(CC3CCOCC3)CCO2)c1` (configuration not stated), the cytotoxicity at 70.5 h is -5.6%.
To `O=C(c1ccc(-n2cccn2)c(F)c1)N1CCCN2CCCC2C1` (configuration not stated) belongs -8.24%; to `CN(C)C(=O)N1C[C@@H]2CC[C@H](C1)N(Cc1nnc(-c3ccccc3)o1)C2`, -16.7%.
Consider `CCc1noc(CC)c1CNC(=O)Nc1cccc([S+](C)[O-])c1` (configuration not stated), for which the cytotoxicity at 70.5 h is -1.9%.
Consider `CN(C)CC1(O)CCCN(c2ccnc3c(C(F)(F)F)cccc23)C1` (configuration not stated), for which the cytotoxicity at 70.5 h is -5.96%.
As for `OCc1csc(N2CCCN(Cc3ccc(F)cc3)CC2)n1`, the cytotoxicity at 70.5 h was 2.55%.
Regarding `CCCc1ccc(CN2CCC3(CCC(=O)N(C)CC3)CC2)o1`, the cytotoxicity at 70.5 h worked out at 17.3%.
Turning to `CC(=O)c1cccc(OCCCC(=O)N(C)CCC(F)(F)F)c1`, the cytotoxicity at 70.5 h is -4.24%.
With `Cn1ncc(C2CC(=O)NCc3nc4sccn4c32)c1C1CC1` (configuration not stated), the cytotoxicity at 70.5 h was -12.3%.
As for `O=C(O)c1cc2c(nc1-c1ccncc1)CCN(Cc1ccoc1)CC2`, the cytotoxicity at 70.5 h is -7.98%.
To `CC(=O)NCC(=O)N1CCn2cc(CN3CCN(C)CC3)nc2C1` belongs -11.5%; to `CCc1cnc(N2C[C@H]3CCCC(N(C)Cc4ccccn4)[C@H]3C2)nc1` (some centres not stated), -10.1%.
Regarding `CCCn1cc(C(=O)NC(C)c2c(C)nn(CC)c2C)c(C)n1` (configuration not stated), the cytotoxicity at 70.5 h is -8.59%.
For the compound `CC(=O)Nc1nc(C(=O)N2CCCC2c2noc(C(C)C)n2)cs1` (configuration not stated), the cytotoxicity at 70.5 h came to 1.7%.
To `CCOCc1cnc2n1CCN(Cc1nc(C)cs1)C2C` (configuration not stated) belongs -3.1%; to `COCCn1cc(C(=O)N2CCCC2c2ccc(F)cc2)ccc1=O` (configuration not stated), -1.67%.
`CN1CCN(C2CCN(C(=O)CCC3CCCC3)CC2)CC1`: the cytotoxicity at 70.5 h was -6.88%.
Take `Cc1ccc(CC(=O)N2CCc3nnc(N(C)C)cc3C2)cn1`: the cytotoxicity at 70.5 h was -3.16%.
Turning to `Cc1cccc(C)c1-c1cc(NCCO)nc2[nH]ccc12`, the cytotoxicity at 70.5 h is -11.1%.
In the case of `COc1cccc(CN(C)C(C)c2nccs2)c1OCCn1ccnc1` (configuration not stated), the cytotoxicity at 70.5 h was -3.88%.
Turning to `COc1ccccc1CNC(=O)C(C)N1CC(n2cc(C)cn2)C1` (configuration not stated), the cytotoxicity at 70.5 h is -10.8%.
Turning to `Cn1ccc(C(=O)N2CCCC2c2[nH]ncc2C(N)=O)n1` (configuration not stated), the cytotoxicity at 70.5 h is -4.61%.
With `Clc1cccc2c3c([nH]c12)CCN(Cc1cc2n(n1)CCCNC2)C3`, the cytotoxicity at 70.5 h came to 35.7%.
As for `Cc1nccnc1N1CC[C@@H](NC(=O)c2cnccn2)[C@H](O)C1`, the cytotoxicity at 70.5 h was -8.55%.
To `Cc1c(-c2cc(C(F)(F)F)nc(N3CCC(N)CC3)n2)cnn1C` belongs 32.2%; to `NC(=O)c1ccc2c(c1)nc1n2CCN(Cc2cccnc2)C1`, -1.68%.
Regarding `Cc1c(C(=O)N2CCN(C)[C@@H]3CS(=O)(=O)C[C@@H]32)[nH]c2ccc(F)cc12`, the cytotoxicity at 70.5 h was -1.69%.
In the case of `COCc1ccccc1C(=O)NCC(O)c1ccc(Cl)s1` (configuration not stated), the cytotoxicity at 70.5 h turned out to be 0.31%.
In the case of `Cc1nc(C(=O)N2CC[C@@]3(C[C@@H](NS(C)(=O)=O)CCO3)C2)cs1`, the cytotoxicity at 70.5 h is -5.85%.
For the compound `Cc1cc2n(n1)CC(CNCc1ccc(Oc3ccccc3)nc1)CN2` (configuration not stated), the cytotoxicity at 70.5 h turned out to be 21.7%.
On to `Cc1ccc(CC2COCCN(S(C)(=O)=O)C2)nc1` (configuration not stated), for which the cytotoxicity at 70.5 h worked out at 12.3%.
For `CCOC(=O)N1CCN(c2nc(N)c3ccccc3n2)CC1`, the cytotoxicity at 70.5 h was -7.74%.
`Cc1ccc(CN2CCc3c(CN(C)C)n[nH]c3C2)s1`: the cytotoxicity at 70.5 h was -0.649%.
For the compound `COc1ccc(CN2C[C@@H]3CCCO[C@@H]3[C@H](NS(C)(=O)=O)C2)cc1`, the cytotoxicity at 70.5 h was -9.16%.
Regarding `CC(C)c1nnc2n1CCN(C(=O)c1cnc(C3CC3)s1)C2`, the cytotoxicity at 70.5 h was -7.9%.
Regarding `CCNC(=O)CCCC(=O)N1CCc2cc(Cl)cc(Cl)c2C1`, the cytotoxicity at 70.5 h is -4.11%.
To `CCCc1cc(C(=O)N2C[C@H](O)[C@@H](N3CCCC3)C2)ccn1` belongs 16.4%; to `COCCS(=O)(=O)NC(C)c1ccccc1Br` (configuration not stated), -0.0652%; to `O=C1[C@H]2CN(Cc3ccccc3)C[C@H]2CN1c1cncnc1`, -2.62%.
Regarding `COCCCN1CCN([C@@H]2c3ccccc3C3(CCNCC3)[C@H]2O)CC1`, the cytotoxicity at 70.5 h is 0.267%.
Consider `CC(C)c1nnc2n1CCN(CCC(=O)Nc1sccc1C#N)C2`, for which the cytotoxicity at 70.5 h was -1.15%.
Take `Cc1ncsc1-c1nnc(C2CCN(Cc3cccc(F)c3F)CC2)o1`: the cytotoxicity at 70.5 h worked out at 38.7%.
`Cn1c(C2CC2)nc2c1CCN(Cc1nc(Cc3ccccc3)no1)C2`: the cytotoxicity at 70.5 h was -12.9%.
Consider `Cc1cccc(CN2CCc3c(CNC(=O)CC#N)nn(C)c3C2)n1`, for which the cytotoxicity at 70.5 h was -0.367%.
In the case of `CCC(C)(COc1ncccc1Cl)NCC(=O)Nc1ccc(Br)cn1` (configuration not stated) it was 38.6%.
`CN(C)c1nc(CNC(=O)Nc2cccc([S+](C)[O-])c2)cs1` (configuration not stated): the cytotoxicity at 70.5 h is -5.56%.
As to `CCCn1nc2c(cc1=O)CN(Cc1cc(C)on1)CC2`, the cytotoxicity at 70.5 h was found to be 4.88%.
In the case of `Cc1cc(NCc2ccc(CO)cc2)n2nc(C)cc2n1`, the cytotoxicity at 70.5 h is -0.853%.
Consider `COCCOCC(=O)N(Cc1cccc(C)c1)C(C)C`, for which the cytotoxicity at 70.5 h was 3.91%.
As for `CC1N(C)C(=O)COC12CCN(C(=O)CCc1ccccc1)CC2` (configuration not stated), the cytotoxicity at 70.5 h amounted to 5.92%.
In the case of `CC(=O)N1CC[C@H]2NC(=O)N(Cc3ccccc3)C(=O)[C@H]21`, the cytotoxicity at 70.5 h was -1.45%.
To `CCC(CN1CCN(C)CC1)NC(=O)C1(c2cccc(F)c2)CC1` (configuration not stated) belongs -4.87%; to `CCN(CC)C(=O)C1CCN(C(=O)Nc2cccnc2OC)CC1`, 34.4%; to `O=C(c1cc(F)ccc1F)C1CCN(C(=O)c2ccc(=O)[nH]n2)CC1`, -9.24%.
To `CC(=O)Nc1ncc(-c2ccc(C)cc2)[nH]1` belongs 4.65%.
Regarding `CC(C)[C@H](NS(C)(=O)=O)C(=O)NCc1cc(-c2ccccc2)n[nH]1`, the cytotoxicity at 70.5 h is -10.8%.
Regarding `CN1CCC2(CCN(C(=O)c3ccccc3)CC2)C1`, the cytotoxicity at 70.5 h turned out to be 31.4%.
